Measurements reported in patent US20250312269A1, “ADMINISTRATION OF A P[…] BY INT[…]” (RESET PHARMACEUTICALS, INC., priority 2022, published 2025).
Like-named read-outs stand apart in the source and are kept apart here.

Columns and labels:
[1] = Non-compartmental analysis of DMT IM bioavailability from digitised published data; assay type: in vivo; settings: human, blood, intramuscular, 0.7 mg/kg, 0.7 mg/kg IM
Excerpt: (§1) DMT IM data was digitised from Kaplan et al. “Blood and urine levels of N,N-dimethyltryptamine following administration of psychoactive dosages to human subjects” Psychopharmacologia 38, 239-245 (1974). A one compartment model was used with linear absorption and clearance to describe the human IM data from Kaplan et al. 1974, and is shown schematically in FIG. 3. Mathematically, this model is a series of two linked ordinary differential equations (ODE's) given in equations (7)-(8).
The points are the mean data, and the error bars are plus and minus the SEM. Non-compartmental analysis (NCA) was run to calculate the dose normalised AUC at four dose levels. The bioavailability of the IM data was then calculated, equation (3), at all four dose levels seen in Table 2, due to the IM dose being 0.7 mg/kg the 0.4 mg/kg bioavailability values were taken and therefore bioavailability was assumed to be one for the rest of the modelling.

[2] = One-compartment IM PK model fitted to published DMT IM data; design: species or system human; settings: estimate (95% CI)
Excerpt: as §1
Constant ka is the absorption rate constant (units 1/min), Cl is the clearance (units mL/min), Vc is the volume of distribution of the central compartment (units mL).
The model gives a satisfactory fit of the absorption phase, seen in FIG. 5, where the line is the simulate PK model and the points are the raw data. The fitted PK parameters can be found in Table 3.

[3] = Particle size distribution (PSD) analysis by laser diffraction of feed and micronised compound; assay type: physicochemical; settings: primary pressure of 4 bar, lens R1/R3/R5 per sample
Protocol: In order to provide a small and homogeneous particle size of psychedelic compound in the final suspensions, psilocybin and psilocin were micronised before use. Micronisation was performed by wet bead milling using decafluoropentane as the antisolvent. In a glass vial, 200 mg psychedelic compound and 2 g of 1 mm silica beads were weighed. 3 mL of the antisolvent was added for psilocybin and 2 mL for psilocin. The samples were vortexed for approximately 15 seconds then milled at 530 rpm for 60 minutes.
(§2) The micronised sample was then separated from the silica beads and transferred to a petri dish and left at room temperature to allow for evaporation of the solvent overnight (approximately 18 hours). The dried sample was then collected and characterised by PSD and XRPD.
Particle size analysis was carried out, in single analysis, by laser diffraction using a Sympatec Helos particle size analyser, equipped with a RODOS dry dispersion unit and ASPIROS feeder unit. The lens and primary pressures were varied for each compound tested.

[4] = Two-compartment IV bolus PK model fitted to published psilocin plasma data after psilocybin IV; design: species or system human; settings: estimate (95% CI)
Protocol: All analysis was performed using the software R and RStudio, with models being defined using analytical and ODE solutions.
Systemic PK parameters were derived for published human bolus psilocybin IV data. Human IV PK data for psilocin after psilocybin was administered was taken from Hasler et al. “Determination of psilocin and 4-hydroxyindole-3-acetic acid in plasma by HPLC-ECD and pharmacokinetic profiles of oral and intravenous psilocybin in man”. Pharm Acta Helv. 1997 June; 72(3):175-84. Model selection was performed by assessing visual fit to data and the respective model AIC's of a one compartment and two compartment IV PK model. These systemic human PK parameters were then used for human intramuscular injection simulations by simulating the PK profiles over a range of doses and absorption rates.
It is assumed that the generation of psilocin is instantaneous and complete once psilocybin is absorbed.
An IV two compartment model best described the IV data from FIG. 2. A two-compartment model gave a good description of the raw data capturing the Cmax and terminal phase well, FIG. 3. The systemic PK parameters can be seen in Table 1 and there are low errors in the parameter estimates.

[5] = Human IM simulations of psilocin exposure, one (native) absorption rate; settings: 'native' absorption rate taken from DMT IM model
Protocol: The model that was used is shown schematically in FIG. 6, mathematically the analytical solution is shown in equations (9)-(14).
Using the absorption rate from modelling the IM DMT data and the human systemic psilocin PK parameters, human IM simulations were run over 1-12 mg doses and the simulated PK profiles can be seen in FIG. 8. […] It was therefore investigated which dose produces the therapeutic plasma level (5 ng/mL) quickly, this can be seen in Table 4.

[6] = XRPD analysis after micronisation; assay type: physicochemical; settings: wet bead milling in decafluoropentane
Protocol: as §2
X-ray powder diffraction (XRPD) analysis was carried out using a Bruker D2 Phaser powder diffractometer equipped with a LynxEye detector. The specimens were located at the centre of a silicon sample holder within a 5 mm pocket. The samples were continuously spun during data collection and scanned using a step size of 0.02° two theta (28) between […] to 60° two theta, the detailed parameters are summarised in Table 11. The data was processed using Diffrac Plus EVA software (Version 3.1).

[7] = Solubility assessment in excipients / vehicles
[8] = cited from earlier work
[9] = IV administration; cited from earlier work

Question: For `CN(C)CCc1c[nH]c2ccccc12` [DMT, N,N-dimethyltryptamine], which bioavailability ([1]; AUC of IV infusion dose 0.05 mg/kg) is on record?
Answer: 46.3%

Question: What about the bioavailability ([1]; AUC of IV infusion dose 0.1 mg/kg) of the same compound?
Answer: 77.8%

Question: What about the bioavailability ([1]; AUC of IV infusion dose 0.2 mg/kg) of the same compound?
Answer: 132%

Question: And the bioavailability ([1]; AUC of IV infusion dose 0.4 mg/kg)?
Answer: 162%

Question: What about the ka ([2]; absorption rate constant) of the same compound?
Answer: 0.153 (−0.311, 0.616) ^ /min

Question: What about the CI ([2]; clearance) of the same compound?
Answer: 21900 (4690, 39100) ml/min

Question: What about the V ([2]; 0.7 mg/kg IM) of the same compound?
Answer: 353000 (−397000, 1100000) ml

Question: Which results are given for `CN(C)CCc1c[nH]c2cccc(O)c12` [Feed psilocin, psilocin]?
Answer: D10 [3]: 20.36 μm; D50 [3]: 106.05 μm; D90 [3]: 232.08 μm

Question: For `CN(C)CCc1c[nH]c2cccc(OP(=O)(O)O)c12` [Feed psilocybin, psilocybin], which D10 [3] is on record?
Answer: 1.16 μm

Question: And the D50 [3]?
Answer: 5.46 μm

Question: And the D90 [3]?
Answer: 16.32 μm

Question: What does the source list for `CN(C)CCc1c[nH]c2cccc(O)c12` [Micronised psilocin, psilocin]?
Answer: D10 [3]: 0.44 μm; D50 [3]: 1.07 μm; D90 [3]: 2.27 μm

Question: What does the source list for `CN(C)CCc1c[nH]c2cccc(OP(=O)(O)O)c12` [Micronised psilocybin, psilocybin]?
Answer: D10 [3]: 0.45 μm; D50 [3]: 1.20 μm; D90 [3]: 3.13 μm

Question: What does the source list for `CN(C)CCc1c[nH]c2cccc(O)c12` [psilocin, 4-hydroxy-N,N-dimethyltryptamine]?
Answer: CI ([4]; clearance, fit to 1 mg psilocybin IV data): 3810 (3340, 4290) ml/min; k21 ([4]; distribution rate from peripheral compartment): 0.0489 (0.0388, 0.0591) /min; k12 ([4]; distribution rate to peripheral compartment): 0.176 (0.144, 0.208) /min; V ([4]; volume of distribution of central compartment, fit to 1 mg psilocybin IV data): 88600 (77300, 99900) ml; absorption half-life [5]: 4.53 min; chemical degradation upon micronisation (XRPD) [6]: no significant chemical degradation; solubility versus pH ([7]; initial solution trials in aqueous vehicles): higher solubility at acidic pH; solubility in DMSO and NMP ([7]; non-micronised): good solubility

Question: With `CN(C)CCc1c[nH]c2cccc(OP(=O)(O)O)c12` [psilocybin, [3-(2-dimethylaminoethyl)-1H-indol-4-yl]dihydrogen phosphate] as the compound, how does the “chemical degradation upon micronisation (XRPD)” value [6] read?
Answer: no significant chemical degradation

Question: What about the duration ([8]; oral dosing) of the same compound?
Answer: 4 to 8 h

Question: What about the “maximum effect (time)” value ([8]; oral dosing) of the same compound?
Answer: 60 to 90 min

Question: And the onset of action ([8]; oral dosing)?
Answer: 20 to 40 min

Question: What about the bioavailability ([8]; reported, oral dosing context) of the same compound?
Answer: approximately 50%

Question: And the “duration of the psychological effects” value [9]?
Answer: 20 minutes

Question: What about the onset of action [9] of the same compound?
Answer: 1 to 2 min

Question: What about the “solubility in all the excipients tested” value ([7]; non-micronised, 20 excipients) of the same compound?
Answer: poor solubility
